Laboratory results: patent publication US6632838B1, “Use of bissulfonamides for producing medicines for the treatment of hyperlipidemia” (Aventis Pharma Deutschland GmbH, priority 1999, dated 2003)

What was measured:
[1] = test system: human LDL receptor gene promoter coupled to firefly luciferase reporter gene in Hep-G2 cell line; assay: In vitro determination of LDL receptor induction using the luciferase assay; type: cell-based; conditions: luminescence, DMSO control=100%
Protocol: 1) In Vitro Determination of LDL Receptor Induction Using the Luciferase Assay
LDL-receptor induction is determined using the luciferase assay as follows. A regulatory DNA fragment (4 kb) of the human LDL receptor gene containing the complete promoter region is coupled to the firefly luciferase reporter gene and stably transfixed into a Hep-G2 cell line. Cells from this line were seeded out on collagen-coated 96-well plates in MEM (minimum essential medium). After 24 hours in culture, the test substances, dissolved in DMSO, were added in final concentrations of 10 nM to 10 μM (final DMSO concentration=2%). The substances were incubated for 12-18 hours overnight (4 wells/conc. in each case), then D-luciferin was added as substrate for the luciferase, and the luminescence was measured. The measured luminescence as a percentage of the control (control=100%) incubated only with DMSO indicates the extent of the relative LDL receptor induction (Table 2).
Further details of the method are described in Current Protocols in Molecular Biology, F. M. Ausubel, R. Brent, R. E. Kingston, D. D. Moore, J. G. Seidman, J. A. Smith, and K. Struhl, eds., J. Wiley and Sons Inc., U.S.A.

[2] = test system: hyperlipemic hamsters (plasma lipid level); assay: In vivo reduction in LDL cholesterol / plasma lipid level in hyperlipemic hamsters; set-up: species or system Syrian hamster; conditions: vs placebo-treated control
Description: In Vivo Determination of Reduction in LDL Cholesterol in the Hamster; Cholesterol-lowering Effect of LDL Receptor Inducers in Hyperlipemic Hamsters
In this animal experiment, the effect of LDL receptor inducers after bolus adiminstration to hamsters on a lipid-rich diet was investigated.
The experimental animals used were male Syrian hamsters (Charles River) with an average body weight of 100 to 120 g at the start of adaption. The animals were divided into groups (n=6) on the basis of the body weight. Severe hyperlipidemia was induced by feeding with a diet supplemented with 15% butter and 3% cholesterol. The treatment started after preliminary feeding for 2 weeks. The test substances were administered orally by gavage once a day over a period of 10 days. The plasma lipid level was analyzed after 10 days.

[3] = 20 mg/kg p.o. once a day for ten days
[4] = 40 mg/kg p.o. once a day for ten days

Compound	LDL receptor induction (% of control) ([1]; 1.5 μM)	LDL receptor induction (% of control) ([1]; 4 μM)	LDL receptor induction (% of control) ([1]; 0.15 μM) [%]	also measured
CN1CCN(c2cc(NCc3ccccc3)c(S(=O)(=O)NC3CCCCC3)cc2S(=O)(=O)NC2CCCCC2)CC1 [Example 2]	155%	227%		
CN1CCN(c2cc(N3CCN(C)CC3)c(S(=O)(=O)N(C)Cc3ccccc3)cc2S(=O)(=O)N(C)Cc2ccccc2)CC1 [Example 3]	414%		184	
CN1CCN(c2cc(NCc3ccccc3)c(S(=O)(=O)N3CCCC3)cc2S(=O)(=O)N2CCCC2)CC1 [Example 5]		240% (4 μM)		
CN1CCN(c2cc(N3CCN(C)CC3)c(S(=O)(=O)N3CCCCC3)cc2S(=O)(=O)N2CCCCC2)CC1 [Example 8]		190% (4 μM)		
CN1CCN(c2cc(NCc3ccccc3)c(S(=O)(=O)N(C)c3ccccc3)cc2S(=O)(=O)N(C)c2ccccc2)CC1 [Example 9]	402%		244	
CN1CCN(c2cc(NCc3ccccn3)c(S(=O)(=O)N(C)c3ccccc3)cc2S(=O)(=O)N(C)c2ccccc2)CC1 [Example 10]		270%	144	
CC(C)CNS(=O)(=O)c1cc(S(=O)(=O)NCC(C)C)c(N2CCN(C)CC2)cc1NCc1ccccc1 [Example 12]	244% (1.5 μM)			
CN1CCN(c2cc(NCCCc3ccccc3)c(S(=O)(=O)N3CCOCC3)cc2S(=O)(=O)N2CCOCC2)CC1 [Example 15]	243%		137	
CCN(CC)S(=O)(=O)c1cc(S(=O)(=O)N(CC)CC)c(N2CCN(C)CC2)cc1NCc1ccccc1 [Example 16]	214% (1.5 μM)			
CN1CCN(c2cc(NCCCc3ccccc3)c(S(=O)(=O)N(C)c3ccccc3)cc2S(=O)(=O)N(C)c2ccccc2)CC1 [Example 25]	189%		168	
CN1CCN(c2cc(NCCCc3ccccc3)c(S(=O)(=O)N3CCCC3)cc2S(=O)(=O)N2CCCC2)CC1 [Example 26]	206%		146	
CN(c1ccccc1)S(=O)(=O)c1cc(S(=O)(=O)N(C)c2ccccc2)c(N2CCNCC2)cc1NCc1ccccn1 [Example 46]	223%		152	
CCN(CCN(C)C)S(=O)(=O)c1cc(S(=O)(=O)N(CC)CCN(C)C)c(N2CCN(C)CC2)cc1N(C)Cc1ccccc1 [Example 61]		190% (4 μM)		
CCN(CCN(C)C)c1cc(N2CCN(c3ccccc3)CC2)c(S(=O)(=O)N2CCCCC2)cc1S(=O)(=O)N1CCCCC1 [Example 64, N-Ethyl-N′,N′-dimethyl-N-[5-(4-phenyl-piperazin-1-yl)-2,4-bis-(piperidine-1-sulfonyl)-phenyl]ethane-1,2-diamine]				melting point: 116 to 118 °C
CCN(CCN(C)C)c1cc(NC2CCN(Cc3ccccc3)CC2)c(S(=O)(=O)N2CCCCC2)cc1S(=O)(=O)N1CCCCC1 [Example 65]	292%	314%	177	
CCN(CCN(C)C)c1cc(NCCCCc2ccccc2)c(S(=O)(=O)N2CCCCC2)cc1S(=O)(=O)N1CCCCC1 [Example 70]		238%	194	
O=S(=O)(c1cc(S(=O)(=O)N2CCCCC2)c(NCc2cccc(Cl)c2)cc1NCCN1CCCC1)N1CCCCC1 [Example 84]	199%	223%		
CCN(CCN(C)C)c1cc(NCCc2ccc(OC)c(OC)c2)c(S(=O)(=O)NCCc2cccs2)cc1S(=O)(=O)NCCc1cccs1 [Example 92]	213%	233%		
CCN(CCN(C)C)c1cc(N2CCC(c3ccccc3)CC2)c(S(=O)(=O)NCCc2cccs2)cc1S(=O)(=O)NCCc1cccs1 [Example 93]	293%	337%	213	
CCN(CCN(C)C)c1cc(N2CCN(c3ccccc3)CC2)c(S(=O)(=O)NCCc2cccs2)cc1S(=O)(=O)NCCc1cccs1 [Example 94]	194%	321%		
O=S(=O)(NCCc1cccs1)c1cc(S(=O)(=O)NCCc2cccs2)c(NCc2cccc3ccccc23)cc1NCCN1CCCC1 [Example 95]	267%	301%	198	Relative change in the plasma lipid level: LDL cholesterol [2, 3]: −44%; Relative change in the plasma lipid level: Total cholesterol [2, 3]: −45%; Relative change in the plasma lipid level: Triglycerides [2, 3]: −61%; Relative change in the plasma lipid level: LDL cholesterol [2, 4]: −49%; Relative change in the plasma lipid level: Total cholesterol [2, 4]: −50%; Relative change in the plasma lipid level: Triglycerides [2, 4]: −73%
CCN(CCN(C)C)c1cc(N2CCN(c3ccccc3)CC2)c(S(=O)(=O)NCCCOC)cc1S(=O)(=O)NCCCOC [Example 96]	278%	326%	138	
CN(C)CCNc1cc(NCc2ccc(Cl)c(Cl)c2)c(S(=O)(=O)N2CCCCC2)cc1S(=O)(=O)N1CCCCC1 [Example 98]	249%	285%		Relative change in the plasma lipid level: LDL cholesterol [2, 3]: −26%; Relative change in the plasma lipid level: Total cholesterol [2, 3]: −23%; Relative change in the plasma lipid level: Triglycerides [2, 3]: −27%; Relative change in the plasma lipid level: LDL cholesterol [2, 4]: −44%; Relative change in the plasma lipid level: Total cholesterol [2, 4]: −46%; Relative change in the plasma lipid level: Triglycerides [2, 4]: −68%
CN(C)CCNc1cc(NCc2cccc(Cl)c2)c(S(=O)(=O)N2CCCCC2)cc1S(=O)(=O)N1CCCCC1 [Example 99]	247%	322%		
COCCCNS(=O)(=O)c1cc(S(=O)(=O)NCCCOC)c(N2CCN(c3ccccc3)CC2)cc1NCCN1CCCC1 [Example 102]	239%	298%		
CN1CCN(c2cc(N3CC=C(c4ccccc4)CC3)c(S(=O)(=O)N(C)c3ccccc3)cc2S(=O)(=O)N(C)c2ccccc2)CC1 [Example 108]	191%	249%		
